Measured values reported in ChEMBL document CHEMBL2057176, “Synthesis and in vitro evaluation of [18F](R)-FEPAQ: a potential PET ligand for VEGFR2” (Bioorg Med Chem Lett, 2012).
Activity calls are given as the source filed them. No cut-off for these calls is given here.

Assays:
[1] = target: T1, Vascular endothelial growth factor receptor 2 (Homo sapiens, UniProt P35968); assay: Binding affinity to VEGFR2 in isolated human glioblastoma at 0.18 nM after 60 mins by phosphor image autoradiographic analysis; conditions: tested as the 18F-labelled form
T1 sequence (P35968 whole entry): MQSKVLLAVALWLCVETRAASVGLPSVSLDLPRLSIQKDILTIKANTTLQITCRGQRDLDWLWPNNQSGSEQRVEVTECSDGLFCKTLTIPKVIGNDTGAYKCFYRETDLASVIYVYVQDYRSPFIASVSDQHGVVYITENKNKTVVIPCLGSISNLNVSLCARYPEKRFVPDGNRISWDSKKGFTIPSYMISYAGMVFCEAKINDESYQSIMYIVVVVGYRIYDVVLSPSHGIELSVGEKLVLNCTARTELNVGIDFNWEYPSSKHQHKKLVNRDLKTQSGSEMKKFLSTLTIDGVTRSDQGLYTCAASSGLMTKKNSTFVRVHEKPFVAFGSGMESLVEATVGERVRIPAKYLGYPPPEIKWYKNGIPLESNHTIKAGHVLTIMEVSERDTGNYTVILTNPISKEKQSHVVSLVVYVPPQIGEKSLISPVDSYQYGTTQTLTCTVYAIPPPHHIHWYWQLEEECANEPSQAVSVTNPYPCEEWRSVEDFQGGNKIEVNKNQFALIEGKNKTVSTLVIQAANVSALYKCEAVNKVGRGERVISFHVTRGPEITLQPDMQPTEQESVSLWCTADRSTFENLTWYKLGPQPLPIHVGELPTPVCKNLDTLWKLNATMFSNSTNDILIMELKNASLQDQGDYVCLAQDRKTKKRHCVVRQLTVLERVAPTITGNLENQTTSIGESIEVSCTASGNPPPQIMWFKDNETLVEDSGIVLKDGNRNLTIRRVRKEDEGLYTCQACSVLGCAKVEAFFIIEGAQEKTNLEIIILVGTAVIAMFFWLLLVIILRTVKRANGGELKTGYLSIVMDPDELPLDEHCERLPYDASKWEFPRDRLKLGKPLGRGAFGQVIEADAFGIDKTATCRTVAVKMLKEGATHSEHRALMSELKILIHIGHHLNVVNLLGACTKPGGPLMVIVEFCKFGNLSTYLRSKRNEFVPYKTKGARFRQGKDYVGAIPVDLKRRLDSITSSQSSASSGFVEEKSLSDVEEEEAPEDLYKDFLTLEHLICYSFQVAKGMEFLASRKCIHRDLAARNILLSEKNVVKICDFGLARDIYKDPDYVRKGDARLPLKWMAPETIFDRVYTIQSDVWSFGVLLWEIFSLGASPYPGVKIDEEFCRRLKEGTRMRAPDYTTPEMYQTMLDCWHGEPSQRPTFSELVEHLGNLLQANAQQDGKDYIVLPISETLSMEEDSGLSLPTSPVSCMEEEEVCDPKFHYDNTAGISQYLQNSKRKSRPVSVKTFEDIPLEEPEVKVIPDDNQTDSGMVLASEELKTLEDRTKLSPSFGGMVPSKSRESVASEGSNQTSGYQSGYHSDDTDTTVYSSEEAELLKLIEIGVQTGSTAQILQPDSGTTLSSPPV

[2] = target: T1, Vascular endothelial growth factor receptor 2; assay: Binding affinity to VEGFR2 in isolated human glioblastoma at 0.18 nM after 60 mins by phosphor image autoradiographic analysis in presence of ZM-323881; conditions: tested as the 18F-labelled form
[3] = target: T1, Vascular endothelial growth factor receptor 2; assay: Binding affinity to VEGFR2 in isolated human glioblastoma at 0.18 nM after 60 mins by phosphor image autoradiographic analysis in presence of (R)-PAQ; conditions: tested as the 18F-labelled form
[4] = target: T1, Vascular endothelial growth factor receptor 2; assay: Inhibition of human VEGFR2 by fluorescence-based electrophoretic mobility-shift assay

COc1cc2c(Nc3ccc(Br)cc3F)ncnc2cc1OC[C@@H]1CCCN(CCF)C1
Activity [1]: Active
Activity [2]: inactive
Activity [3]: inactive
IC50 [4]: 40 nM
